From ChEMBL document CHEMBL1134241, “Spatial requirements of the antagonist binding site of the NK2 receptor” (Bioorg Med Chem Lett, 2001)

The compounds below were run against T1, Substance-K receptor (Homo sapiens, UniProt P21452) (assay: Binding affinity for heterologously expressed human Tachykinin receptor 2 using [3H]-SR- 48968 as radioligand).
T1 sequence (P21452 whole entry): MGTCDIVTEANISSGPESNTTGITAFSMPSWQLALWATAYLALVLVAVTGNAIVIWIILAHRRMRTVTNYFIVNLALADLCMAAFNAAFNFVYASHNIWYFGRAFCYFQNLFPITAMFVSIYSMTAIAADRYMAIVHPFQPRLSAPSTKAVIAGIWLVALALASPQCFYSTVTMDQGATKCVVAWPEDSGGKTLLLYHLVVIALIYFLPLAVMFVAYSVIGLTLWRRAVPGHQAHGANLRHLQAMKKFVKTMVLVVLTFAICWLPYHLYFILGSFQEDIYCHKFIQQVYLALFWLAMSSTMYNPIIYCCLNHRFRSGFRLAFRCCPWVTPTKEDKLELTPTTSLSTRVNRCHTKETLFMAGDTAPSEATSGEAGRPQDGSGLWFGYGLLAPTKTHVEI
[O-][S+](CC1(O)CCN(CCc2c[nH]c3ccc(F)cc23)CC1)c1ccccc1 (racemic) [4-BENZENESULFINYLMETHYL-1-[2-(5-FLUORO-1H-INDOL-3-YL)-ETHYL]-PIPERIDIN-4-OL (STRUCTURAL MIX)] was tested, and the IC50 was 22 nM.
With [O-][S+](CC1(O)CCN(CCc2c[nH]c3ccc(F)cc23)CC1)c1ccc2ccccc2c1 (racemic) the IC50 was 13.4 nM.
For [O-][S+](C[C@]1(O)CCN2CCc3c([nH]c4ccc(F)cc34)[C@H]2C1)c1ccccc1 (mixture of isomers), the IC50 was 25300 nM.
Compound CN(C[C@@H](CCN1CCC(NC(=O)c2ccccc2)(c2ccccc2)CC1)c1ccc(Cl)c(Cl)c1)C(=O)c1ccccc1 (racemic) has an IC50 of 14.3 nM.
Compound COC1(C[S+]([O-])c2ccccc2)CCN(CCc2c[nH]c3ccc(F)cc23)CC1 (racemic) has an IC50 of 2.5 nM.
In the case of [O-][S+](c1ccccc1)C(c1ccccc1)C1(O)CCN(CCc2c[nH]c3ccc(F)cc23)CC1 (racemic), the IC50 is reported as 111 nM.
In the case of CN(C)C(=O)NC1(c2ccccc2)CCN(CC[C@@]2(c3ccc(F)c(F)c3)CN(C(=O)c3ccccc3)CCO2)CC1 (racemic), the IC50 is reported as 6 nM.
